Data reported in publication PMC6556873, “Rapid Covalent-Probe Discovery by Electrophile-Fragment Screening” (Journal of the American Chemical Society, 2019).
Like-named read-outs stand apart in the source and are kept apart here.

Experiments:
NUDT7 = molecular target: T1, NUDT7 (Homo sapiens, UniProt P0C024); parameters: Intact protein LC/MS covalent labelling, fragments in pools of five, 200 uM each, 4 °C; conditions: 24 h, 4 °C, pool of five; 200 µM; covalent
T1 construct: residues 14-235, E. coli, pNIC28-Bsa4, N-terminal His6 tag removed by TEV, construct 26672 Da

NNMT (hNNMT) = molecular target: T2, NNMT (hNNMT) (Homo sapiens, UniProt P40261); parameters: Intact protein LC/MS covalent labelling, fragments in pools of five, 200 uM each, 4 °C; conditions: 24 h, 4 °C, pool of five; 200 µM; covalent
T2 construct: wild type, N-terminal His6 tag kept (no cleavage described), E. coli, construct 31248 Da
T2 sequence (P40261 1-264): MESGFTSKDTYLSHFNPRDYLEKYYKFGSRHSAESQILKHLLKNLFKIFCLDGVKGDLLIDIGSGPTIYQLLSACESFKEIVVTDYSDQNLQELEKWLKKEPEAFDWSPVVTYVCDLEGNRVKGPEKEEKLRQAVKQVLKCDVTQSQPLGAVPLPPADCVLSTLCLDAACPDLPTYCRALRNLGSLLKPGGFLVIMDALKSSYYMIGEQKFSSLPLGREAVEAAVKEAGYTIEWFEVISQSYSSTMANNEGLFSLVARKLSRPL

BSA = molecular target: T3, BSA (Bos taurus, UniProt P02769); parameters: Intact protein LC/MS covalent labelling, fragments in pools of five, 200 uM each, 4 °C; conditions: 24 h, 4 °C, pool of five; 200 µM; covalent
T3 construct: gene ALB

PCAF = molecular target: T4, PCAF (Homo sapiens, UniProt Q92831); parameters: Intact protein LC/MS covalent labelling, fragments in pools of five, 200 uM each, 4 °C; conditions: 24 h, 4 °C, pool of five; 200 µM; covalent
T4 construct: gene KAT2B

in vitro [1] = assay: in vitro; parameters: species or system CCD841, HEK293; conditions: human, hb2 cells, read-out: HB-2 Cells Viability (%)
in vitro [2] = assay: in vitro; parameters: species or system HB2, CCD841; conditions: human, hek293 cells
in vitro [3] = assay: in vitro; parameters: species or system HB2, HEK293; conditions: human, ccd841 cells
OTUB2 (OTUB2A) = molecular target: T5, OTUB2 (OTUB2A) (Homo sapiens, UniProt Q96DC9); parameters: Intact protein LC/MS covalent labelling, fragments in pools of five, 200 uM each, 4 °C; conditions: 24 h, 4 °C, pool of five; 200 µM; covalent
T5 construct: full length residues 1-234, E. coli BL21(DE3)-R3, His tag removed by TEV, construct 27312 Da
T5 sequence (Q96DC9 1-234): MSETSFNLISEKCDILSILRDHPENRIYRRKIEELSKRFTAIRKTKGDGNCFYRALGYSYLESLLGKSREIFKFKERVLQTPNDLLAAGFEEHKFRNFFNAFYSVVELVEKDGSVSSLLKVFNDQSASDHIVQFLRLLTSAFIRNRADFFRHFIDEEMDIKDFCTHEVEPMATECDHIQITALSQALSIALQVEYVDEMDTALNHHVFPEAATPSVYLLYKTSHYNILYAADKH

T3 sequence (P02769 whole entry, the tested form may be a part): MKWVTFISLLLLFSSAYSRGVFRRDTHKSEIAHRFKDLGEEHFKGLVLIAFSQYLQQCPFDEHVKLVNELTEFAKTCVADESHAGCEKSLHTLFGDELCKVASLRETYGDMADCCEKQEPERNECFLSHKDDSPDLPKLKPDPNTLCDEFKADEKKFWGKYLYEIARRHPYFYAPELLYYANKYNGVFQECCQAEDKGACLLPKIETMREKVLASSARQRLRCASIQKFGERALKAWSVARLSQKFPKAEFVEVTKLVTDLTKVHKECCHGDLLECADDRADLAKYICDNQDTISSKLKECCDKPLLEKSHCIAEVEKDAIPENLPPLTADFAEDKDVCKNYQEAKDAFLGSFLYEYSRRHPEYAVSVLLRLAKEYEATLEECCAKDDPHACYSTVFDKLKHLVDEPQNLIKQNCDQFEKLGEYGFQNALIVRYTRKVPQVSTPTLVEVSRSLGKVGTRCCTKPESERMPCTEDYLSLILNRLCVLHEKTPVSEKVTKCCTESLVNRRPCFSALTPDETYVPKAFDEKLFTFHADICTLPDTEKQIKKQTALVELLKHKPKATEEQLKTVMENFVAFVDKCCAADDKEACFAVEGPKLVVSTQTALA
T1 sequence (P0C024 14-235): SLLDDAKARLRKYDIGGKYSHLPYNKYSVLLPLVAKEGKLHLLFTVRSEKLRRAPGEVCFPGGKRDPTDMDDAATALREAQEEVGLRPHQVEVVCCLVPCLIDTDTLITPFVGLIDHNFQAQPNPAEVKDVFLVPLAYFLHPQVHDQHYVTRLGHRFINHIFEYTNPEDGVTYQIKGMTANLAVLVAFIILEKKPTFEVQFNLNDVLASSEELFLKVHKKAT
T4 sequence (Q92831 whole entry, the tested form may be a part): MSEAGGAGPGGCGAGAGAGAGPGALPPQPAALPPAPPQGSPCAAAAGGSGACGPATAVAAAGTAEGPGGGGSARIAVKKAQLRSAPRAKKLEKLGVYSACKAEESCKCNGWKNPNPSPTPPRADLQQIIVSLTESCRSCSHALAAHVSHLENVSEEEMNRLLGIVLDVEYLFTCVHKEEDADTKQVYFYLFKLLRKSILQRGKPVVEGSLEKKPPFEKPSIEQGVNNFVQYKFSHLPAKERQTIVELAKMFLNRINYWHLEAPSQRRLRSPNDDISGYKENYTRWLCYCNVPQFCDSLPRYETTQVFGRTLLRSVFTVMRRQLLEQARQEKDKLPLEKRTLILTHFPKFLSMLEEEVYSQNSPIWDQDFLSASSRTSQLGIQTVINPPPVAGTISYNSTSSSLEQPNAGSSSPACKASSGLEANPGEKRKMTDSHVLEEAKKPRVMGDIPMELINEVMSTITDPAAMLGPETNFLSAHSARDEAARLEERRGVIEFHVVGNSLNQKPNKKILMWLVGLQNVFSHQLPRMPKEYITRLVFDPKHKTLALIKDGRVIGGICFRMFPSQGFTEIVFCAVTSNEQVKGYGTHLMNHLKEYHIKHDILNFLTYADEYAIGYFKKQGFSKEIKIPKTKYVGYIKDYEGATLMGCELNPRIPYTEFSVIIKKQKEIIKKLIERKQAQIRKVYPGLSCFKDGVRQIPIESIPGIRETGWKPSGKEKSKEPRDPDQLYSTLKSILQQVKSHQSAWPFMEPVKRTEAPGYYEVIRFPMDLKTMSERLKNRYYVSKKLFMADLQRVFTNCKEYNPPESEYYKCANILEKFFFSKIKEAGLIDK

SMILES	NUDT7 (NUDT7)	NNMT (NNMT (hNNMT))	BSA (BSA)	PCAF (PCAF)	viability at 48 h, 10 µM (in vitro [1])	viability at 48 h, 10 µM (in vitro [2])	viability at 48 h, 10 µM (in vitro [3])	OTUB2 (OTUB2 (OTUB2A))
C=CC(=O)N1CCC(c2nc(C(F)(F)F)c[nH]2)CC1 [PCM-0102513]	0	0.22	0	0	95.7%	111%	99.4%	–
C=CC(=O)NCc1ccc2c(c1)C(C)(C)C(=O)N2 [PCM-0102570]	0	0.21	0	0	107%	92%	110%	–
C=CC(=O)Nc1cccc(OC)c1 [PCM-0102800]	0	0	0	0	–	–	–	0
C=CC(=O)NC1CCCN(C(=O)OC)C1 (centres unmarked) [PCM-0102526]	0	0.22	0	0	101%	90.7%	106%	–
N#CC1(NC(=O)CCl)CCCC1 [PCM-0102136]	0	0	0	0	70%	44%	61.1%	–
O=C(CCl)Nc1cc2c(cc1Cl)C(=O)c1ccccc1C2=O [PCM-0102757]	0.12	0	0	0	1.4%	22.5%	58.4%	–
O=C(CCl)NC1CCCCCCC1 [PCM-0102318]	0	0	0	0	86.6%	66.1%	92.1%	–
Cc1ccccc1CNC(=O)CCl [PCM-0102253]	0	0.2	0	0	99.6%	93.4%	86.6%	–
O=C(CCl)N1CCC(Cc2ccccc2)CC1 [PCM-0102492]	0.18	0.51	0	0	–	–	–	0.18
O=C(CCl)Nc1ccc(N2CCCCC2)nc1 [PCM-0102812]	0.14	0.53	0	0	32.5%	4.4%	61.5%	–
C=CC(=O)Nc1cccc(F)c1 [PCM-0102922]	0	0	0.19	0	–	–	–	0
C=CC(=O)N1CCNC(=O)C1c1cccs1 (centres unmarked) [PCM-0102597]	0	0	0	0	103%	81%	113%	–
CC1CCC(N(C(=O)CCl)C2CC2)CC1 (centres unmarked) [PCM-0102792]	0.13	0.21	0	0	11.4%	6.8%	8.8%	–
O=C(CCl)Nc1ccc2c(c1)NC(=O)CO2 [PCM-0102890]	0.08	0.22	0	0	–	–	–	0.32
C=CC(=O)Nc1ccc(N(C)C)cc1 [PCM-0102461]	0	0.2	0	0	102%	81.3%	111%	–
O=C(CCl)NCC(F)(F)F [PCM-0102456]	0	–	0	0	102%	91.9%	99.4%	0

SMILES	NUDT7 (NUDT7)	NNMT (NNMT (hNNMT))	BSA (BSA)	PCAF (PCAF)	viability at 48 h, 10 µM (in vitro [1])	viability at 48 h, 10 µM (in vitro [2])	viability at 48 h, 10 µM (in vitro [3])	OTUB2 (OTUB2 (OTUB2A))
CC1CCC(C#N)(N(C)C(=O)CCl)CC1 (centres unmarked) [PCM-0102251]	0.05	–	0	0	16.5%	3.9%	55.4%	0
C=CC(=O)Nc1ccccc1C(F)(F)F [PCM-0102581]	0	–	0	0	108%	123%	121%	0
C=CC(=O)N1CCCC(c2ncc3n2CCCC3)C1 (centres unmarked) [PCM-0103042]	0	–	0.11	0	95.6%	97.1%	108%	0
C=CC(=O)NC1CCCn2nc(C)nc21 (centres unmarked) [PCM-0103083]	0	–	0	0	105%	115%	116%	0
O=C(CCl)Nc1ccc(OC(F)(F)F)cc1 [PCM-0102276]	0.24	–	0	0	13.3%	9.2%	64.9%	0.36
C=CC(=O)N1CCN(c2nc3ccccc3o2)C(C)C1 (centres unmarked) [PCM-0102441]	0	–	0	0	96.7%	88.3%	99.4%	0
CC1CN(C(=O)CCl)CCO1 (centres unmarked) [PCM-0102830]	0	–	0	0	101%	85.9%	99.1%	0
Cc1ccc(C(=O)O)cc1NC(=O)CCl [PCM-0102624]	0	–	0	0	102%	86.2%	108%	0
O=C(CCl)Nc1nc2ccc(F)cc2s1 [PCM-0102294]	0.89	–	0	0	53%	76.7%	62.7%	0
CC1CCN(C(=O)CCl)c2ccccc2S1 (centres unmarked) [PCM-0102216]	0.32	–	0	0	77.3%	42.4%	52.4%	0
CN(Cc1cccs1)C(=O)CCl [PCM-0102636]	0.17	–	0	0	11.3%	7%	57.7%	0
O=C(CCl)Nc1nc(-c2ccc(F)cc2)cs1 [PCM-0102809]	0.37	–	0	0	5.1%	1.7%	63.1%	0.21
C=CC(=O)Nc1ccc(OC)c(F)c1 [PCM-0102995]	0	–	0	0	104%	80.5%	106%	0
C=CC(=O)NC1CCc2nc(-c3cc(F)ccc3F)cn2C1 (centres unmarked) [PCM-0102566]	0	–	0	0	97.4%	78%	106%	0
CC1CC(C)CN(C(=O)CCl)C1 (centres unmarked) [PCM-0102789]	0	–	0	0	102%	61.8%	83.1%	0.08
